Source: ChEMBL document CHEMBL3507680, “University of Dundee, Gates Library screen for HepG2 cell viability”

Test: Human HepG2 cell viability assay in 384 well format
Type: toxicity, cell-based
Parameters: dose 125 nL, time 70.5 hour; concentration not given beside the values
Details: HepG2 cells, read-out: Inhibition

| SMILES | cytotoxicity at 70.5 h |
| --- | --- |
| COc1ccc2c(c1)OCC(CNC1CCc3ncnn3C1)=C2 (stereo not drawn) | -0.263% |
| CC(c1ccc(F)cc1F)N1CCN(CCC(=O)NC(N)=O)CC1 (stereo not drawn) | -6.26% |
| CC(c1ccc(F)cc1F)N1CCN(CCN2CCCC2=O)CC1 (stereo not drawn) | -4.44% |
| CC(c1nc(C2CC2)no1)N1CCc2c(ncn2C2CC2)C1 (stereo not drawn) | -7.1% |
| Cc1ccc(C(=O)NCc2cc(F)ccc2N2CCCN(C)CC2)o1 | 1.17% |
| CCc1nnc(CS(=O)(=O)c2ccc(C)c(C)c2)n1C | 26.2% |
| CC(OCC1CC1)C(=O)Nc1cccc(C(=O)Nc2ccccn2)c1 (stereo not drawn) | -8.38% |
| Cc1cc(C)n(CCN2CCC(N(C)Cc3nnc(C)n3C)C2)n1 (stereo not drawn) | -0.44% |
| CC1CN(CC(=O)NCc2ccc(F)cc2)CCN1c1nccs1 (stereo not drawn) | 0.122% |
| CN1CCCN(c2ccc(F)cc2CNC(=O)c2ccsc2)CC1 | -4.69% |
| COc1cc(NC(=O)N(C)CCC2CC2)ncn1 | 19.9% |
| Cc1nncn1CCNC(=O)C1SCCc2sccc21 (stereo not drawn) | -3.34% |
| Cc1cnn(CCNCc2cc(=O)n3cc(Cl)ccc3n2)c1 | -6.7% |
| Cc1cnn(CC(C)NCc2cc(=O)n3ccccc3n2)c1 (stereo not drawn) | -11.2% |
| Cc1ccc(NC(=O)c2cccc(N(C)C)c2)nc1 | -8.66% |
| CC(C)(NCc1cccc(C(N)=O)c1)c1ccc2c(c1)OCO2 | -10% |
| CC(C)(NCc1cccc(O)c1)c1ccc2c(c1)OCO2 | -11.8% |
| CC(C)(NCc1cccc(C#N)c1)c1ccc2c(c1)OCO2 | -9.81% |
| NC1(c2nc(-c3cccs3)cc(=O)[nH]2)CCCCC1 | 7.44% |
| NC1(c2nc(-c3ccccc3)cc(=O)[nH]2)CCCC1 | 13.8% |
| Cc1ncncc1C(=O)N1CCCN(Cc2nccn2C(C)C)CC1 | -8.96% |
| O=C(NCCO)Nc1c(F)cccc1Oc1ccccc1 | -7.66% |
| CCc1ncc2c(n1)CN(CC(=O)NC1CCCCNC1=O)CC2 (stereo not drawn) | 1.9% |
| COCCN(C(=O)c1cc(C)no1)c1ccc(C#N)cc1 | -8.51% |

| SMILES | cytotoxicity at 70.5 h |
| --- | --- |
| Cn1c(C2CC2)nc2c1CCN(CC(=O)NC1CCCCNC1=O)C2 (stereo not drawn) | -7.85% |
| CN(C)CCN(C)S(=O)(=O)Cc1ccc(Br)cc1 | 11.7% |
| CN1CCC(N(Cc2ccccc2)C(=O)c2ccn3cncc3c2)CC1 | 3.64% |
| COc1ccc(C(=O)NC2COc3ccccc3C2)cc1OCC(=O)O (stereo not drawn) | -4.51% |
| CC(C)(C)OC(=O)N1CCCN(Cc2ccon2)c2ccccc21 | 9.4% |
| COCCN1CCN(CC(=O)NC2(C#N)CCCC2)CC1 | -8.93% |
| CCC1CN(CC(=O)NC2(C#N)CCCC2)CCN1CCOC (stereo not drawn) | -6.19% |
| COCCN1CCN(CC(=O)NC2(C#N)CCCC2)CC1C (stereo not drawn) | 7.99% |
| CN1CCC(N(Cc2ccccc2)C(=O)c2nccn3ccnc23)CC1 | -7.08% |
| CCN(CC)CCn1cc(NC(=O)Nc2ccccc2OC)cn1 | -11.6% |
| CCc1noc(C(C)N2CCC(NS(=O)(=O)c3ccccc3)CC2)n1 (stereo not drawn) | 19.7% |
| O=C(NCC1CCCN1Cc1ccccc1)NCC1(O)CCC1 (stereo not drawn) | 31.1% |
| CC(=O)NCC1CCN(Cc2nc(C3CC3)no2)CC1 | -6.87% |
| CC(C)Oc1ccc(CNC(=O)C2CCC(=O)N2)cn1 (stereo not drawn) | 23% |
| CCCC(=O)NCc1ccc(N2CCCCC2)cc1 | -10.2% |
| CC(CNC(=O)c1nnn(-c2ccccc2)c1C(F)(F)F)N(C)C (stereo not drawn) | -8.59% |
| Cc1nnc2n1CCN(CC(=O)NC(C)c1cccc3ccccc13)C2 (stereo not drawn) | 2.87% |
| Cn1c(=O)[nH]c2cc(C(=O)OCC(F)F)ccc21 | 19.9% |
| CNC(=O)NC(=O)CN1CCN(CC2CC2)c2ccccc21 | 1.66% |
| O=C(NC1CCS(=O)(=O)c2ccccc21)c1sccc1C1CC1 (stereo not drawn) | -7.25% |
| O=C(NCc1nncn1C1CC1)C1(c2ccc(F)cc2)CCOCC1 | 16.9% |
| CCCc1nc(CN(C)CCOc2ccccc2)cs1 | -8.59% |
| Cc1cc(CNCC2CCCN(C(=O)OC(C)(C)C)C2)no1 (stereo not drawn) | -6.15% |
| O[C@H]1Cc2ccccc2[C@H]1Nc1ncccc1C(F)(F)F | -4.3% |

| SMILES | cytotoxicity at 70.5 h |
| --- | --- |
| Cc1cc(C(=O)NCC2CCCC2)c(C)n1-c1cccnc1 | -6.04% |
| CC(c1ncc(C(C)(C)C)o1)N1CCN(Cc2ccc(Cl)s2)CC1 (stereo not drawn) | 16.2% |
| CCOc1ccnc(N2CCCN(c3nc(C4CC4)ns3)CC2)n1 | 4.37% |
| Cc1nn(C)c(C)c1C1CCCN1CCCC#N (stereo not drawn) | -4.71% |
| Cc1nn(C)c(C)c1C1CCCN1CCOc1cccc(C#N)c1 (stereo not drawn) | -3.95% |
| CCOCCN1CCN(CCC(=O)N2CCCCC2)CC1C (stereo not drawn) | -0.119% |
| COC(=O)C(C)(C)NC(=O)c1cc2sc(N(C)C)nc2s1 | -13.9% |
| Cc1csc(CNC(=O)NC2CCCN(S(C)(=O)=O)C2)n1 (stereo not drawn) | -12.3% |
| c1csc(-c2cc(CN3CCN(c4cnccn4)CC3)no2)c1 | -14.8% |
| CCc1noc(C(C)N2CCN(c3ncnc4sccc34)CC2)n1 (stereo not drawn) | 1.35% |
| CC(NCc1ccc(OCC(N)=O)cc1)c1ccc2c(c1)CCCC2 (stereo not drawn) | -4.04% |
| CN(C)c1cc2c(nn1)CCN(C(=O)c1cc3c(s1)CCC3)C2 | 8.88% |
| Cn1cc(C(=O)N2CCCN(c3cccnn3)CC2)c2ccccc21 | -0.532% |
| CCNc1cc2c(nn1)CCN(C(=O)C1Cc3ccccc3S1)C2 (stereo not drawn) | -6.84% |
| CCNc1cc2c(nn1)CCN(C(=O)c1cc3c(s1)CCOC3)C2 | -9.07% |
| COc1cc(OC)cc(N2CCC(NC(=O)c3cccn3C)CC2)c1 | -13.4% |
| COCCN1CCC(CNC(=O)Nc2ccc(-c3ccccc3)cc2)C1 (stereo not drawn) | 1.85% |
| CCOCCN1CCN(CC(=O)N2CCCC2)CC1C (stereo not drawn) | -7.94% |
| CC(CNC(=O)c1ccc(C#N)cc1)N1CCc2ccccc21 (stereo not drawn) | 0.334% |
| Cc1ccc(N2CCCN(C(=O)c3cn(C)c4ccccc34)CC2)nn1 | -7.87% |
| COCCNC1(c2ccc(Cl)cc2)CCOCC1 | 11% |
| CCN(CC1CCOC1)C(=O)NCc1ccc(-n2cncn2)nc1 (stereo not drawn) | -1.6% |
| Cc1ccc(C(=O)N(Cc2cccc(F)c2)C2CC2)c(=O)[nH]1 | -2.11% |
| Cc1ccc(C(=O)N(Cc2ccc(F)cc2F)C2CC2)c(=O)[nH]1 | -2.76% |

| SMILES | cytotoxicity at 70.5 h |
| --- | --- |
| CN(CCCNC(=O)c1cccc(OCC(N)=O)c1)CC(F)(F)F | 0.403% |
| CN1N=C(C(=O)N2CCCN(c3ncccc3C#N)CC2)CCC1=O | 3.72% |
| CCn1ccnc1CN1CCN(c2ncnc3ccsc23)CC1 | -3.44% |
| CCn1ccnc1CN1CCN(c2ncnc3ccccc23)CC1 | -2.5% |
| Cn1ccnc1CN1CCN(c2ncnc3ccsc23)CC1 | -0.211% |
| Cc1cc(CNC(=O)N2CCc3ccccc32)on1 | -1.25% |
| CN1N=C(C(=O)N2CCN(c3ncccc3Cl)CC2)CCC1=O | 12% |
| Cn1cc(N2CCCC(Nc3ccc4c(c3)NC(=O)CC4)C2=O)cn1 (stereo not drawn) | -1.14% |
| O=C(c1ccc(NCc2ccco2)nc1)N1CCc2ccccc21 | -3.94% |
| Cn1cc(N2CCCC(Nc3ccc4c(c3)CCC(=O)N4)C2=O)cn1 (stereo not drawn) | 0.589% |
| Cc1noc(C)c1CCCNC(=O)C1CCCN(C(=O)C2CC2)C1 (stereo not drawn) | -0.841% |
| COCCC(=O)N1CCC(Nc2ncc(Br)cn2)CC1 | -0.761% |
| CC(C)OCCNC1(c2ccc(Cl)cc2)CCOCC1 | -0.58% |
| CC(c1cccnc1)N1CCN(C(=O)NCc2cnn(C)c2)CC1 (stereo not drawn) | -1.81% |
| CC(C)CNC(=O)COc1cccc[n+]1[O-] | 0.267% |
| COCc1ccccc1C(=O)NCC(c1c(F)cccc1F)N(C)C (stereo not drawn) | 0.326% |
| COC1CCN(CCNC(=O)NCC(C)c2cccc(C)c2)CC1 (stereo not drawn) | 9.93% |
| COc1ccc2c(c1)CCCN2C(=O)CN1CCOC(C)C1 (stereo not drawn) | 0.691% |
| CN(CCCNC(=O)c1ccccc1F)CC(F)(F)F | -2.12% |
| COCC(=O)N1CCN(C(=O)C2(c3ccc(C)c(OC)c3)CC2)CC1 | -2.36% |
| O=C(Cc1csc(Cc2ccccn2)n1)NCCCN1CCCC1=O | 32.1% |
| N#Cc1c(F)cccc1Nc1cnn(CC(=O)N2CCOCC2)c1 | 39.8% |
| Cc1ccccc1CN(C)C(C(N)=O)c1ccccc1 (stereo not drawn) | -16.6% |
| CN(C)c1ncccc1CNc1snc(Cl)c1C#N | -77.9% |

| SMILES | cytotoxicity at 70.5 h |
| --- | --- |
| CN(Cc1cnn(C)c1)C(=O)Cc1ccc2c(c1)OCCO2 | -62.7% |
| N#Cc1c(Cl)nsc1NCc1cccnc1OCC(F)(F)F | -105% |
| CC(C(N)=O)N(C)Cc1ccccc1C(F)(F)F (stereo not drawn) | -87.9% |
| COCC(=O)N1CCN(Cc2csc(-c3ncccn3)n2)CC1 | -2.92% |
| Cc1c(C(=O)NCCC(C)C)nnn1-c1cccc2c1CCN(C)C2 | -5.25% |
| CCC(C)(C)NC(=O)c1nnn(-c2cccc3c2CCN(C)C3)c1C | 9.39% |
| COCCNC(=O)Nc1cccc2c1CCN(S(C)(=O)=O)C2 | -0.282% |
| Cc1cc(C)n(C2CN(CC(=O)N(C)Cc3ccsc3)C2)n1 | -1.75% |
| CSCC(=O)Nc1cccc(Oc2ccccn2)c1 | 9.83% |
| CCN(CC)C(=O)Nc1cccc(Oc2ccccn2)c1 | 20.3% |
| CCNC(=O)N(CCCO)C1CCCc2ccccc21 (stereo not drawn) | -3.93% |
| N#Cc1cccc(S(=O)(=O)N2CCCCC2C(N)=O)c1 (stereo not drawn) | -3.12% |
| CCOCCOC(C)C(=O)NCc1cn2cc(Cl)ccc2n1 (stereo not drawn) | 15.2% |
| CC(=O)Nc1cccc(OCCNC(=O)N(C)Cc2ccccc2)c1 | 3.43% |
| CCCC(C(=O)NCCc1nc(C)cs1)N(C)C (stereo not drawn) | 2.88% |
| Cc1nc(C)n(CC2CCCN(Cc3nc(-c4ccco4)no3)C2)n1 (stereo not drawn) | -3.87% |
| CC(O)CN1CCN(C(=O)c2cnc(OC(C)C)c(Cl)c2)CC1 (stereo not drawn) | 5% |
| Cc1ccccc1CN(C)C(=O)Cn1nc(-c2ccc(F)cc2)oc1=O | 29.6% |
| Cc1cc(NCc2ccccc2CN2CCCCC2)n2ncnc2n1 | -10.1% |
| Cc1cc(=O)n2ncnc2n1CC(O)c1ccc(F)cc1F (stereo not drawn) | -16.6% |
| Cc1ccc(-c2n[nH]cc2CNCC2CCN(CC(F)(F)F)C2)o1 (stereo not drawn) | -1.74% |
| CC(NCc1ccc(OCC(N)=O)cc1)c1ccc(Cl)cc1Cl (stereo not drawn) | -5.48% |
